Assay [1] relates to serotonine-induced oedema. Briefly: antiserotonine effect in vivo: inhibition of serotonine-induced plantar oedema. Details: species or system rat. To be noted: for ED50: Rattus norvegicus, 50 μg serotonine into plantar region of rats.
Another assay concerns the target T1, serotonine receptors (Rattus norvegicus, UniProt P14842).
T1 construct: isolated rat uterus sensitized with diethylstibestrol; from tissue; host or cells: isolated rat uterus, sensitized with diethylstilbestrol (printed 'diethylstibestrol')
As to the kind of experiment: antiserotonine effect in vitro on isolated rat uterus sensitized with diethylstibestrol.

The subject of assay [2] is reserpine-induced depression. As to the kind of experiment: antidepressant activity: reserpine-induced depression, maximum increase in body temperature. To be noted: mice. The format is in vivo. The procedure:
The new 8β-hydrazinomethyl-ergoline derivatives show antidepressant effects as tested on mice suffering from reserpine-induced depression. An intraperitoneal dosage of 5 mg/kg of reserpine was applied to induce depression. 18 hours later the body temperature of the animals was measured, 30 mg/kg of the compound under examination were administered intraperitoneally into the animals, and the body temperature of the animals was measured hourly for 5 hours. The maximum increase in temperature (i.e. the maximum body temperature measured after administering the compound minus the initial value) was considered as the measure of the antidepressant activity. In these tests Imipramine was used as a reference substance.

Consider 7 molecules from patent US4235912A, “Biologically active new 8β-hydrazinomethyl-ergoline derivatives and a process for the preparation thereof” (Richter Gedeon Vegyeszeti Gyar Rt, priority 1978, dated 1980).

Entries after “also recorded” stand apart in the source; their conditions may differ.

T1 sequence (P14842 whole entry): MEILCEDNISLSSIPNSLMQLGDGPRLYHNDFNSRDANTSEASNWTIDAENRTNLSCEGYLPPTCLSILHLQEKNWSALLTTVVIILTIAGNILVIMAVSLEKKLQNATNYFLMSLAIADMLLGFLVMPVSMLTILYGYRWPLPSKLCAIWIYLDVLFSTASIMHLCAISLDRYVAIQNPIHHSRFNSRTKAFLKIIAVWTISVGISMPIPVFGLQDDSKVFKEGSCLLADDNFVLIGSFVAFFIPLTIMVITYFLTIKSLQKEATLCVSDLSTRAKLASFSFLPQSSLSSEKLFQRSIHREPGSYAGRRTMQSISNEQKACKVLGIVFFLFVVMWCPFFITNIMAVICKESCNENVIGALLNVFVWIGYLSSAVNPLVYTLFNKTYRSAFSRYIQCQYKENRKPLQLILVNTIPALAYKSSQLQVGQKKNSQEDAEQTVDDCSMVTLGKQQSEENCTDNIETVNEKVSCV

What is called ED50 is the dose that gives a 50% effect, or the effect in half of the subjects. A high value points to weaker potency. In the case of `CC(=O)NNC[C@@H]1C[C@@H]2c3cccc4[nH]cc(c34)C[C@H]2N(C)C1` [Example 4, 6-Methyl-8β-([N'-acetyl-hydrazino]-methyl)-ergoline], the results for the ED50 in assay [1] (po) and in assay [1] (sc) were 3 mg/kg and 0.3 mg/kg, respectively.
Turning to `CN(C)C(=O)NNC[C@@H]1C[C@@H]2c3cccc4[nH]cc(c34)C[C@H]2N(C)C1` [Example 6, 6-Methyl-8β-([N'-dimethylcarbamoyl-hydrazino]-methyl)-ergoline], the ED50 in assay [1] (po) was 3 mg/kg; in assay [1] (sc), 0.05 mg/kg.
In the case of `CC(=O)NNC[C@@H]1C[C@@H]2c3cccc4c3c(cn4C)C[C@H]2N(C)C1` [Example 7, 1,6-Dimethyl-8β-([N'-acetyl-hydrazino]-methyl)-ergoline], the ED50 is 3 to 10 mg/kg in assay [1] (po) and 0.03 mg/kg in assay [1] (sc).
What is called IC50 is the concentration at which inhibition is half-maximal. As for `CN(C)C(=O)NNC[C@@H]1C=C2c3cccc4[nH]cc(c34)C[C@H]2N(C)C1` [Example 8, 6-Methyl-8β-([N'-dimethylcarbamoyl-hydrazino]-methyl)-ergol-9-ene], the ED50 is 3 mg/kg in assay [1] (po) and 0.16 mg/kg in assay [1] (sc). The IC50 at serotonine receptors was 2.95 nM.
On to `CC(=O)NNC[C@@H]1C=C2c3cccc4[nH]cc(c34)C[C@H]2N(C)C1` [Example 9, 6-Methyl-8β-([N'-acetyl-hydrazino]-methyl)-ergol-9-ene], for which the results for the ED50 in assay [1] (po) and in assay [1] (sc) were 0.78 mg/kg and 0.055 mg/kg, respectively. Further, the “inhibition of serotonine-induced oedema, in words” value in assay [1] (parenteral and oral administration) is “outstandingly effective”. Moreover, the IC50 on serotonine receptors was 3.22 nM.
In the case of `CNC(=S)NNC[C@@H]1C=C2c3cccc4[nH]cc(c34)C[C@H]2N(C)C1` [Example 14, 6-Methyl-8β-([N'-methylthiocarbamoyl-hydrazino]-methyl)-ergol-9-ene], the “antidepressant activity, in words” value in assay [2] was “outstandingly effective; also recorded: superior to that of Imipramine”.
In the case of `CC[C@@H](CO)NC(=O)[C@@H]1C=C2c3cccc4c3c(cn4C)C[C@H]2N(C)C1` [Methysergide, 1-methyl lysergic acid butanolamide, reference compound], the ED50 in assay [1] (po) is 0.64 mg/kg; in assay [1] (sc), 0.026 mg/kg.
